Assay results as given in US20230015647A1, “INHIBITORS OF HISTONE DEMETHYLASES (PFI-63 AND PFI-90) FOR THE TREATMENT OF CANCER AND FOR THE INHIBITION OF HISTONE DEMETHYLASE IN CELLS” (The United States of America,as represented by the …, priority 2019, published 2023).
“Also recorded” adds a separate entry of the source. Like-named read-outs stand apart in the source and are kept apart here.

Legend:
[1] = tested on: PAX3-FOXO1 fusion transcription factor; assay: RH4 ALK-Luc luciferase reporter assay (PAX3-FOXO1 super enhancer activity); assay type: cell-based, human; settings: for Avg Absorbance @ 1 μM, ALK-Luc / Avg Absorbance @ 10 μM, ALK-Luc: RH4 ALK-Luc reporter
Procedure: The screen was performed using two derivatives of RH4 FP-RMS cells: • (1) “ALK-Luc cells”—RH4 cells expressing a pGreenFire green fluorescent protein (GFP)-luciferase reporter (SEQ ID NO: 1) controlled by the PAX3-FOXO1-dependent intronic ALK super enhancer (for reporting on PAX3-FOXO1 activity) (FIGS. 1 and 2); and • (2) “CMV-Luc cells”—control RH4 cells in which the reporter is transcribed from a constitutively active cytomegalovirus (CMV) promoter. An Example of visualization via the ALK-Luc reporter is depicted in FIG. 3.
The cells were enriched for reporter expression levels and used for assay development. A high throughput screening assay was developed after optimization of cell seeding density, length of incubation of cells prior to and post treatment with test compounds, and effect of passaging among other factors. The screen was designed to identify compounds that suppressed PAX3-FOXO1 activity without disrupting viability (at a short time points) or general transcription. The assay simultaneously monitors the function of the PAX3-FOXO1 super enhancer (also referred to as “ALK super enhancer”), general transcriptional activity as well as cell viability.
The visual summary of the screening strategy is illustrated in FIG. 4. ALK-Luc cells were seeded in both white-walled and white-bottomed 384-well plates (Perkin Elmer, Cat #6007658) for luciferase assays and in clear 384-well plates (Perkin Elmer, Cat #6007688) for viability assay (XTT reduction) by transferring 27 μL of cell suspensions (seeding 3000 cells per well) into each well. The plates were then transferred into an incubator for 18-20 h. The CMV-Luc cells were similarly seeded into white plates and incubated.
A pure compound library of 62,643 compounds consisting of synthetic and natural products described previously (Grohar et al., J Natl. Cancer Inst., 103: 962-978 (2011)) was then used in a high throughput screening campaign to identify inhibitors of PAX3-FOXO1. Stock DMSO Solutions of these compounds were used to prepare 100 μM solutions in growth medium in 384-well plates also containing 16 wells each of a positive control (Actinomycin D, Sigma, Cat #A1410) and negative control (DMSO). Screening compounds along with the positive and negative controls were added to assay plates by transferring 3 μL of the prepared 100 μM dilutions using an automated liquid handler (Agilent, Bravo). Treated plates were incubated for 24 h. At the end of this period, treated plates were allowed to equilibrate to room temperature for 30 minutes. SteadyLite Plus luciferase assay reagent powder (PerkinElmer, Cat #6066759) was reconstituted in its buffer in parallel and was also allowed to equilibrate to room temperature.
After transferring 30 μL of the luciferase assay reagent using a liquid handler, plates were further incubated at room temperature for 10 minutes. Finally, luminescence measurements were carried out using a multi-label microplate reader (BMG, Pherastar FSX) set in luminescence mode. Cell viability was assessed by adding XTT reagent (10 μL per well) in clear plates containing treated ALK-Luc cells. XTT treated plates were read using a plate reader in absorbance mode at 450 nm (PerkinElmer, Envision) after further incubation for 1 hour to allow cells to metabolize XTT to a colored formazan product. Luminescence and XTT absorbance values were normalized to the average of the negative controls on each plate and were calculated as a percentage of these controls. Performance of the screening assay was routinely monitored via calculation of Z-factor (Zhang et al., J. Biomol. Screen., 4: 67-73 (1999)) with Z′ for all plates found to be >0.7.
RH4 ALK-Luc and RH4 CMV-Luc cells were seeded into separate white-walled and bottomed 384-well plates and were incubated and treated with screen hits and epigenome compounds. The highest test concentration of these compounds (10-fold) were prepared from DMSO stock solutions via dilution in medium. […]

RH4 cells [2] = assay: Caspase 3 apoptosis assay in RH4 cells; assay type: cell-based, human
Excerpt: (§1) The impact of PFI-63 and PFI-90 on apoptosis in rhabdomyosarcoma cells was investigated by assaying caspase 3 levels in the cells, and by annexin V staining.

RH4 cells [3] = assay: Cell confluence assay (cytotoxicity) in RH4 cells; assay type: cell-based; settings: Homo sapiens, 72 hour time point
Procedure: A cell confluence assay was performed to further assess the cytotoxicity of PFI-63 in RH4 and RH30 rhabdomyosarcoma cells. Confluence data was collected via photographic images of cells treated with PFI-63 at the following time points: 24 hours, 48 hours, 72 hours, 96 hours and 120 hours. Exemplary dose response curves at 72 hours are presented as FIGS. 10 and 11 in RH4 and RH30 cells, respectively.
A cell confluence assay was performed to assess the cytotoxicity of PFI-90 in RH4 and RH30 rhabdomyosarcoma cells. Confluence data was collected via photographic images of cells treated with PFI-90 at the following time points: 24 hours, 48 hours, 72 hours, 96 hours and 120 hours. Exemplary dose response curves at 72 hours are presented as FIGS. 32 and 33 in RH4 and RH30 cells, respectively.

Log P / solubility = assay type: physicochemical
SCMC cells = assay: Caspase 3 apoptosis assay in SCMC cells; assay type: cell-based, human
Excerpt: as §1

[4] = tested on: OSA-CL osteosarcoma cells; assay: Cell confluence assay in OSA-CL osteosarcoma cells; assay type: cell-based
Procedure: A cell confluence assay was performed to further assess the cytotoxicity of PFI-63 in OSA-CL osteosarcoma cells. Confluence data was collected via photographic images of cells treated with PFI-63 at the following time points: 24 hours, 48 hours, 72 hours, 96 hours and 120 hours. Exemplary dose response curves at 72 hours are presented as FIGS. 59 and 60 for PFI-63 and PFI-90 respectively.

RH4 cells [5] = assay: Western blot (MYOG, cleaved PARP, PAX3-FOXO1); assay type: cell-based, human
Procedure: The GSEA results were supported by analysis via Western blot. […] This example confirms that PFI-63 disrupts PAX3-FOXO1 super enhancer circuitry. PFI-63 is also associated with upregulation of targets associated with myogenic differentiation and apoptosis.
In RH4 cells treated with PFI-90 at 3 μM, an increase in cleaved PARP (a marker for apoptosis) is observed at 24 hours (FIG. 48). This coincides with a decrease in PAX3-FOXO1 which is also observed at 24 hours (FIG. 49).

histone H3 methylation = assay: Western blot of histone H3 methylation in treated cells; assay type: cell-based
Excerpt: A diagram illustrating this activity is provided as FIG. 26.
Analysis via Western blot confirms that PFI-90 inhibits lysine demethylase activity.

[6] = 72 hour time point, read-out: IC50
[7] = approximate, read-out: IC50 (toxic to osteosarcoma cells)

Structure (SMILES) | suppression of PAX3-FOXO1 super enhancer activity [1] | Avg Absorbance @ 1 μM, ALK-Luc [1] | Avg Absorbance @ 10 μM, ALK-Luc [1] | caspase 3 (RH4 cells [2]) | IC50 (RH4 cells [3]) [nM] | logP (Log P / solubility) | caspase 3 (SCMC cells) | IC50 [4, 6] [nM] | IC50 [4, 7] [nM] | MYOG (Western blot) (RH4 cells [5]) | cleaved PARP (Western blot) (RH4 cells [5]) | H3K4me3 (Western blot) (histone H3 methylation; treated cells) | H3K9me3 (Western blot) (histone H3 methylation; treated cells) | H3K27me3 (Western blot) (histone H3 methylation; treated cells) | solubility (Log P / solubility; relative to PFI-63) | PAX3-FOXO1 (Western blot) (RH4 cells [5]; 3 μM, 24 hours) | cleaved PARP (Western blot) (RH4 cells [5]; 3 μM, 24 hours) | methylation of histone H3 (Western blot) (histone H3 methylation; as the concentration increases)
Cc1cc(C)cc(C(=O)NNC(=O)c2ccccn2)c1 [PFI-63] | significant suppression | 91.4 | 40.1 | increased caspase 3 | 3660 | 2.36 | increased caspase 3 | 7570 | ~7500 | increase | apoptosis; also recorded: increases | global increase | global increase | global increase |  |  |  | 
O=C(NNc1ccccn1)c1ccccn1 [PFI-90] |  | 55.9 | 34.0 | increased caspase 3 | 812 | 0.82 | increased caspase 3 | 1900 | ~2000 |  |  |  |  |  | improved solubility relative to PFI-63 | decreases | increases | also increases
